Test results published in US7820711B2, “Uses of selective inhibitors of HDAC8 for treatment of T-cell proliferative disorders” (Pharmacyclics Inc., priority 2006, dated 2010).

How the values were obtained:
[1] = test system: Jurkat cells; experiment: modulation of Compound 23-induced apoptosis in Jurkat cells; conditions: compound 23 10 μM
[2] = test system: Jurkat cells; experiment: ratiometric fluorescence calcium imaging, Jurkat cells; type: cell-based, human; conditions: for intracellular calcium mobilization / time to rise in intracellular calcium: 10 μM, FIG. 10; for dose dependence of calcium mobilization: FIGS. 12 and 13; for effect on compound 23-stimulated increase in intracellular Ca2+ levels: FIG. 11
[3] = test system: PLC-γ1-deficient Jurkat J.γ1 cells; experiment: ratiometric fluorescence calcium imaging, J.γ1 cells; type: cell-based, human; conditions: FIG. 14
[4] = test system: Ramos cells; experiment: ratiometric fluorescence calcium imaging, Ramos cells; type: cell-based; conditions: FIG. 15
[5] = test system: Ramos cells; experiment: apoptosis in Ramos cells; type: cell-based
[6] = test system: J.g1 (Phospholipase C-g1 deficient Jurkat); experiment: Apoptosis in J.g1 cells
[7] = test system: P116 (ZAP-70 deficient Jurkat); experiment: Apoptosis in P116 cells
[8] = test system: Jurkat WT; experiment: Apoptosis in Jurkat WT cells
[9] = test system: J.RT3-T.5 (TCR-b chain deficient Jurkat); experiment: Apoptosis in J.RT3-T.5 cells
[10] = test system: PLC-deficient J.γ1 Jurkat cells; experiment: cytochrome C translocation from mitochondria to cytosol, J.γ1 Jurkat; conditions: HDAC inhibitors 12 or 24 hours, FIG. 9
[11] = test system: wild type Jurkat cells; experiment: cytochrome C translocation from mitochondria to cytosol, wild type Jurkat; conditions: HDAC inhibitors 12 or 24 hours, FIG. 9
[12] = molecular target: HDAC-1 (Homo sapiens, UniProt Q13547); experiment: in vitro HDAC inhibition, HDAC-1; type: biochemical
HDAC-1, sequence (Q13547 whole entry): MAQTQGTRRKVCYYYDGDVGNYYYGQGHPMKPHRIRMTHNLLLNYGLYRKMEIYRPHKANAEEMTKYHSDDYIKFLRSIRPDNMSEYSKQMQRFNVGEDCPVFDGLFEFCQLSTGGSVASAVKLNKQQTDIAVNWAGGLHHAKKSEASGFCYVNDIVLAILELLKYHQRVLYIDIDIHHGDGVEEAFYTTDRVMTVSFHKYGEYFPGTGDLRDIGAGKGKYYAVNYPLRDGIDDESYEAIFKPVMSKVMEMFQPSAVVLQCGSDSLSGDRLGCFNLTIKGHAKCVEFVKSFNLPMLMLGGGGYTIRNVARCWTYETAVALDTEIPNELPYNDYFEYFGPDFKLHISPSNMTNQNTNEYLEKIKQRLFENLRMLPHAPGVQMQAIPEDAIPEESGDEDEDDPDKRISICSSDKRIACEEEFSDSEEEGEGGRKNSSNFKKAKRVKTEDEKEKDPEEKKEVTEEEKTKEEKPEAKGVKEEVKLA

[13] = molecular target: HDAC-2 (Homo sapiens, UniProt Q92769); experiment: in vitro HDAC inhibition, HDAC-2; type: biochemical
HDAC-2, sequence (Q92769 whole entry): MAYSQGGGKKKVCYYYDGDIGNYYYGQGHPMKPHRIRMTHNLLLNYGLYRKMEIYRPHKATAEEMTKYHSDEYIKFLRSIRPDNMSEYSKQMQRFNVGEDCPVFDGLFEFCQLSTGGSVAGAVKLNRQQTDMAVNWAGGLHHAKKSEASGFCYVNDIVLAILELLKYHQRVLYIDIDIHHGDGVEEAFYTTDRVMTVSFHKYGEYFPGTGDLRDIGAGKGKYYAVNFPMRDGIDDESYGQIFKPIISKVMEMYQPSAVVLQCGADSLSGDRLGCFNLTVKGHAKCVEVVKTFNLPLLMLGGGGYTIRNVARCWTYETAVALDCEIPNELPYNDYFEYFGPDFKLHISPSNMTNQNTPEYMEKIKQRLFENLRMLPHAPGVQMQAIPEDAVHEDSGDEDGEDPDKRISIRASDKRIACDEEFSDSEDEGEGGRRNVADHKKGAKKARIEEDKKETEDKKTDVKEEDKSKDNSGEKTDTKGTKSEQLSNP

[14] = molecular target: HDAC-3 (Homo sapiens, UniProt O15379); experiment: in vitro HDAC inhibition, HDAC-3; type: biochemical
HDAC-3, sequence (O15379 whole entry): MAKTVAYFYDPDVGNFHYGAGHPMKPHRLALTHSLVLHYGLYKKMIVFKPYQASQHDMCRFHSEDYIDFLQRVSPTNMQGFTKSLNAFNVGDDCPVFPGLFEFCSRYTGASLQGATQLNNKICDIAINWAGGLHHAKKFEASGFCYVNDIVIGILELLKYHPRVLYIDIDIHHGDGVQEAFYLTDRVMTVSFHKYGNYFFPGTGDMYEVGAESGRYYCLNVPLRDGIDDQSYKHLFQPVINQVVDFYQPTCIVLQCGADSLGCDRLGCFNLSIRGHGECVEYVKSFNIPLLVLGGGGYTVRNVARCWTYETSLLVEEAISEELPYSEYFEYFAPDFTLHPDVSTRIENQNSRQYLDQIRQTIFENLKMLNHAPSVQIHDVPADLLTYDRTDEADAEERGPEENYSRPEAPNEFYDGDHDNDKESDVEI
HDAC-3, sequence (Q9Y618 395-489 partner limits assumed): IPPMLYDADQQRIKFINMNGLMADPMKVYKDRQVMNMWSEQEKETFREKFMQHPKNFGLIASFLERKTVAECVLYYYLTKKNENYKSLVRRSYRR

[15] = molecular target: T1, HDAC-6 (Homo sapiens, UniProt Q9UBN7); experiment: in vitro HDAC inhibition, HDAC-6; type: biochemical
T1 sequence (Q9UBN7 1-1215): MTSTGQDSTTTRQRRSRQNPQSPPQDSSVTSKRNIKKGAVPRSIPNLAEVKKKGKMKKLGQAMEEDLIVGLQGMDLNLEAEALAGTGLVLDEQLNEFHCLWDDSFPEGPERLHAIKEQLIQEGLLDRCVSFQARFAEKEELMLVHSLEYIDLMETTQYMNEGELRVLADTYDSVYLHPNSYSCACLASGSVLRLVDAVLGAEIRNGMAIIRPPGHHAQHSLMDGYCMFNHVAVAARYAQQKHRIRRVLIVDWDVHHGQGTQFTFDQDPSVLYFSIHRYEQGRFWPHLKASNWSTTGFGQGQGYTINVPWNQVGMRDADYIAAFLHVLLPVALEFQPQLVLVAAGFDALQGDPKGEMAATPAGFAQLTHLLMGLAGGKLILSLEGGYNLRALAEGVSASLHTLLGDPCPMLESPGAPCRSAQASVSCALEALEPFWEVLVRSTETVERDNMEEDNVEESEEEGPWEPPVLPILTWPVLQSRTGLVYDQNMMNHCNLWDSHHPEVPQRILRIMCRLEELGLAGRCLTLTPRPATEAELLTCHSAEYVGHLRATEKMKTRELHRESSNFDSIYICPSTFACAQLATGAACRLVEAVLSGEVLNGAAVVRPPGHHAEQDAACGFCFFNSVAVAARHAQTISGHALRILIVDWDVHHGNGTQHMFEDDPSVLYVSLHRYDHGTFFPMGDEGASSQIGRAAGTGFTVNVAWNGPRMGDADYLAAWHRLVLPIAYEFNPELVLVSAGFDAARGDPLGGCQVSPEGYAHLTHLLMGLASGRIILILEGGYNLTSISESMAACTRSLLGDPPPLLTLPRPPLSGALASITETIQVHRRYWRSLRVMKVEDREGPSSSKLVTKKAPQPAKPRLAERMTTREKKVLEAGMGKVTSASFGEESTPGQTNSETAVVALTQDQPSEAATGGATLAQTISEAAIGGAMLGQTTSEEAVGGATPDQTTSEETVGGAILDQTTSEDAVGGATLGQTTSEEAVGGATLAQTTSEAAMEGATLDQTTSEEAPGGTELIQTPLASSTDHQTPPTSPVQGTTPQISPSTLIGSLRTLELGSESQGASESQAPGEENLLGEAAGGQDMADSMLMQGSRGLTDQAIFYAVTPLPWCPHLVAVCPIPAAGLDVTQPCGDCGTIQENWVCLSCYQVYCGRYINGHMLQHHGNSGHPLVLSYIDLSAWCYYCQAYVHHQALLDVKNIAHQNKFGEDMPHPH

[16] = molecular target: T2, HDAC-8 (Homo sapiens, UniProt Q9BY41); experiment: in vitro HDAC inhibition, HDAC-8; type: biochemical
T2 sequence (Q9BY41 1-377): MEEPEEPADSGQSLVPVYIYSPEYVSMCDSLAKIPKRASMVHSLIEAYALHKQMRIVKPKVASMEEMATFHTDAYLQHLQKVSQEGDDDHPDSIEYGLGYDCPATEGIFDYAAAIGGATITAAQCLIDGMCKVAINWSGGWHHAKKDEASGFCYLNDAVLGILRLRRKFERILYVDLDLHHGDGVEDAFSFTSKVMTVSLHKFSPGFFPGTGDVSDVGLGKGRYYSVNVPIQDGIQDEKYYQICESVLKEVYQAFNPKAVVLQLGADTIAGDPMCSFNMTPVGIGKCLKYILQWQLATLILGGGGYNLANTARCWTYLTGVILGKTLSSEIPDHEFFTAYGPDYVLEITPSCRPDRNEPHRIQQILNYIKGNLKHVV

[17] = molecular target: T3, HDAC-10 (Homo sapiens, UniProt Q969S8); experiment: in vitro HDAC inhibition, HDAC-10; type: biochemical
T3 sequence (Q969S8 1-669): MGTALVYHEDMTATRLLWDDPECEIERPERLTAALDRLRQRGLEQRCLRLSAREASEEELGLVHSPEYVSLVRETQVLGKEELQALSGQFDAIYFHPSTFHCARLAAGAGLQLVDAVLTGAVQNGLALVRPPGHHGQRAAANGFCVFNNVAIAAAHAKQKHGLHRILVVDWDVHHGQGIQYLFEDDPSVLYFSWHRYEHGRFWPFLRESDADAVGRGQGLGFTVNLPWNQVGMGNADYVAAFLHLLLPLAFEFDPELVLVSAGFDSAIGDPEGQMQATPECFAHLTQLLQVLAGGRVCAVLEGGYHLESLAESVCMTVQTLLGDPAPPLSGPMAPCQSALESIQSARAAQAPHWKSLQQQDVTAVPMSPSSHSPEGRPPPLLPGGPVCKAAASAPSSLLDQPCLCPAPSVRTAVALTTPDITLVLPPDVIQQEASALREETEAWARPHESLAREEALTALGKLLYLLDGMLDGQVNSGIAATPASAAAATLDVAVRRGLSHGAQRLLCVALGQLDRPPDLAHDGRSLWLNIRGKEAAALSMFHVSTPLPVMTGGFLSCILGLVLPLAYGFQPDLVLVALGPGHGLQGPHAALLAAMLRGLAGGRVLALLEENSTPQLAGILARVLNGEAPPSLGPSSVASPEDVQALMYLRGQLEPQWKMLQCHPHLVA

## CC(=O)OCOC(=O)CN(CC(=O)OCOC(C)=O)c1ccccc1OCCOc1ccccc1N(CC(=O)OCOC(C)=O)CC(=O)OCOC(C)=O [BAPTA-AM]
[1]; BAPTA-AM 0.5 μM, FIG. 8(B)
  effect on Compound 23-induced apoptosis: diminished apoptosis

## CN(C)Cc1c(C(=O)NCCOc2ccc(C(=O)NO)cc2)oc2ccccc12 [CRA-024781]
[2]
  intracellular calcium mobilization: sustained rise in intracellular calcium
  time to rise in intracellular calcium: approximately 1 minute
  dose dependence of calcium mobilization: dose dependent
[3]
  effect on intracellular Ca2+: completely abolished
[4]
  intracellular calcium levels: robust increase

## COc1ccc(Cn2ccc3ccc(C(=O)NO)cc32)cc1 [Compound 23, 1-(4-methoxy-phenylmethyl)-1H-indole-6-carboxylic acid hydroxyamide]
[2]
  intracellular calcium mobilization: sustained rise in intracellular calcium
  time to rise in intracellular calcium: approximately 1 minute
  dose dependence of calcium mobilization: dose dependent
[3]
  effect on intracellular Ca2+: completely abolished
[4]
  intracellular calcium levels: did not alter resting calcium levels
[5]
  induction of apoptosis: failure to induce apoptosis
[6]
  Apoptosis at 5 μM: 12%
[7]
  Apoptosis at 5 μM: 82%
[8]
  Apoptosis at 5 μM: 43%
[9]
  Apoptosis at 5 μM: 67%
[10]
  cytochrome C translocation from mitochondria to cytosol: failed to alter the localization
[11]
  cytochrome C translocation from mitochondria to cytosol: induced translocation

## Cn1cc(Cc2ccc(F)cc2)c2cc(C(=O)NO)ccc21 [Compound 33, 1-methyl-3-(4-fluoro-phenylmethyl)-1H-indole-5-carboxylic acid hydroxyamide]
[12]
  IC50: 2600 nM
[13]
  IC50: 23000 nM
[14]
  IC50: 1500 nM
[15]
  IC50: 360 nM
[16]
  IC50: 24 nM
[16]; vs HDACs 1, 2, 3, 6, 10
  HDAC8 IC50 fold lower than the next lowest HDAC target IC50: ~15 fold
[17]
  IC50: 5300 nM

## COc1ccc2c(c1)CC[C@@H]1[C@@H]2CC[C@]2(C)[C@@H](NCCCCCCN3C(=O)C=CC3=O)CC[C@@H]12 [Compound U-73122]
[2]
  effect on compound 23-stimulated increase in intracellular Ca2+ levels: strongly inhibited
[1]; FIG. 7
  effect on Compound 23-induced apoptosis: inhibited Compound 23-induced apoptosis in a dose-dependent manner

## COc1ccc2c(c1)CC[C@@H]1[C@@H]2CC[C@]2(C)[C@@H](NCCCCCCN3C(=O)CCC3=O)CC[C@@H]12 [Compound U-73343]
[2]
  effect on compound 23-stimulated increase in intracellular Ca2+ levels: not
[1]; FIG. 7
  effect on Compound 23-induced apoptosis: failed to block

## C/C=C(/C)C(=O)O[C@H]1C(C)=C2[C@H]([C@@H]1OC(=O)CCCCCCC)[C@@](C)(OC(C)=O)C[C@H](OC(=O)CCC)[C@@]1(O)[C@H]2OC(=O)[C@@]1(C)O [thapsigargin]
[1]; thapsigargin 0.2 μM, FIG. 8(A)
  effect on Compound 23-induced apoptosis: enhanced apoptosis

B1: FasL: a pro-apoptotic protein (protein, UniProt P48023 130-281, looked up)
Tumor necrosis factor ligand …: QIGHPSPPPEKKELRKVAHLTGKSNSRSMPLEWEDTYGIVLLSGVKYKKGGLVINETGLYFVYSKVYFRGQSCNNLPLSHKVYMRNSKYPQDLVMMEGKMMSYCTTGQMWARSSYLGAVFNLTSADHLYVNVSELSLVNFEESQTFFGLYKL
[10]
  cytochrome C translocation from mitochondria to cytosol: effectively induced translocation
[11]
  cytochrome C translocation from mitochondria to cytosol: effectively induced translocation
